Source: paper PMC9026082, “Madecassic Acid—A New Scaffold for Highly Cytotoxic Agents” (International Journal of Molecular Sciences, 2022)

Columns and labels:
[1] = system: A2780 (ovarian carcinoma); experiment: SRB cytotoxicity assay, A2780; type: cell-based, human; details: for EC50: SRB assay, 72 h of treatment, cut-off 30 μM
Text: (§1) To assess their cytotoxicity parent, triterpenoic acids 1–3, their acetates 4–6, the amides 7–18, as well as the respective rhodamine B conjugates 19–24 were subjected to SRB assays employing several human tumor cell lines (A375, HT29, MCF-7, A2780, and HeLa) as well as non-malignant fibroblasts (NIH 3T3).
(§2) A detailed description of materials and methods can be found in the Supplementary Materials File. For biological screening, the cell lines were obtained from ATCC: A375 (CRL-1619), HT29 (HTB-38), MCF7 (HTP-22), A2780 (HTP-77), HeLa (CCL-2), and NIH 3T3 (CRL-1573) ^13C NMR spectra (Supplementary Materials) were recorded as APT spectra showing CH and CH3 groups as positive signals and CH2 groups and quaternary carbons as negative signals. […]
(§3) 2. Cytotoxicity assay (SRB assay)
(§4) The cell lines were obtained from Department of oncology (Martin-Luther-University Halle Wittenberg). Cultures were maintained as monolayers in RPMI 1640 medium with L-glutamine (Capricorn Scientific GmbH, Ebsdorfergrund, Germany) supplemented with 10% heat inactivated fetal bovine serum (Sigma -Aldrich Chemie GmbH, Steinheim, Germany) and penicillin/streptomycin (1%, Capricorn Scientific GmbH, Ebsdorfergrund, Germany) at 37 °C in a humidified atmosphere with 5% CO 2.
(§5) The cytotoxicity of the compounds was eva luated using the sulforhodamine -B (Kiton-Red S, ABCR) micro culture colorimetric assay using […] in 96 -well plates with the seeding of the cells on day 0 applying appropriate cell densities to prevent confluence of the cells during the period of the experiment. On day 1, the cells were treated with six di fferent concentrations (1, 3, 7, 12, 20 and 30 μM); thereby, the final concentration of DMSO was always < 0.5%, generally regarded as non-toxic to the cells. On day 4, the supernatant medium was discarded; the cells were fixed with 10 % trichloroacetic acid. After another day at 4 °C, the cells were washed in a strip washer and dyed with the SRB solution (100 μL, 0.4% in 1% acetic acid) for about 20 min to be followed by washing of the plates (four times, 1% acetic acid) and air -drying […]
(§6) overnight. Furthermore, tris base solution (200 μL, 10 mM) was added to each well and absorbance was measured at λ = 570 nm employing a reader (96 wells, Tecan Spectra, Crailsheim, Germany). The EC50 values were averaged from three independent experiments performed each in triplicate calculated from semi logarithmic dose response curves applying a non-linear four-parameter Hills-slope equation (GraphPad Prism5; variables top and bottom were set to 100 and 0, respectively).

[2] = system: MCF7 (breast adenocarcinoma); experiment: SRB cytotoxicity assay, MCF7; type: cell-based, human; details: cut-off 30 μM
Text: as §1, §2, §3, §4, §5, §6

[3] = system: HT29 (colorectal carcinoma); experiment: SRB cytotoxicity assay, HT29; type: cell-based, human; details: cut-off 30 μM
Text: as §1, §2, §3, §4, §5, §6

A375 (melanoma) = experiment: SRB cytotoxicity assay, A375; type: cell-based, human; details: 72 h of treatment, cut-off 30 μM
Text: as §1, §2, §3, §4, §5, §6

[4] = system: NIH 3T3 (non-malignant fibroblasts); experiment: SRB cytotoxicity assay, NIH 3T3; type: cell-based; details: cut-off 30 μM
Text: as §1, §2, §3, §4, §5, §6

[5] = system: HeLa (cervical carcinoma); experiment: SRB cytotoxicity assay, HeLa; type: cell-based, human; details: 72 h of treatment, cut-off 30 μM
Text: as §1, §2, §3, §4, §5, §6

[6] = system: several human tumor cell lines (A375, HT29, MCF-7, A2780, and HeLa); experiment: SRB assays, cell line not given; type: cell-based; details: cell line not stated; for EC50: Homo sapiens, SRB assays, lowest value of the series, read-out: EC50 values as low as (analogs of madecassic acid)
Text: as §1, with “3T3). […]” for “3T3).”
as §3, §4, §5, §6

A375 cells = experiment: Staining experiments (acridine orange, rhodamine 123, Hoechst 33,342); type: cell-based, human; details: 48 h, same area as rhodamine 123, not in nucleus (Hoechst 33,342)
Experimental: The mode of action—as previously shown for several triterpene-rhodamine B conjugates—is to act as mitocans. […] Thereby, Hoechst 33,342 binds selectively to DNA while rhodamine 123 is usually applied for dying mitochondria.
Figure 1 Staining experiments: A375 cells, 48 h; (A): control; (B): in the presence of 24; (C): Hoechst 33,342 staining; (D): merged (Hoechst 33,342, control); and (E): in the presence of rhodamine 123.

[7] = Homo sapiens, MCF7, 72 h of treatment
[8] = Homo sapiens, HT-29, 72 h of treatment
[9] = Mus musculus, NIH3T3, 72 h of treatment

Molecule	EC50 ([1]; Homo sapiens, A2780)	EC50 [2, 7]	EC50 [3, 8]	EC50 (A375 (melanoma); Homo sapiens, A-375, 72 h)	EC50 [4, 9]	EC50 ([5]; Homo sapiens, HeLa)	melting point	EC50 [6]	times more cytotoxic than parent madecassic acid ([1]; A2780 ovarian cancer cells)	mode of action / localization within the cells (A375 cells)	times more cytotoxic than parent madecassic acid [6]	EC50 [1]	EC50 ([2]; 72 h of treatment)	EC50 ([3]; 72 h of treatment)	EC50 (A375 (melanoma))	EC50 ([4]; 72 h of treatment)	EC50 [5]
CC1(C)CC[C@]2(C(=O)O)CC[C@]3(C)C(=CC[C@@H]4[C@@]5(C)CC[C@H](O)[C@@](C)(CO)[C@@H]5CC[C@]43C)[C@@H]2C1 [Compound 2, (3β,4α) 3,23-Dihydroxyolean-12-en-28-oic Acid]	19.6 ± 1.6 µM	25.7 ± 1.9 µM	> 30 µM	26.3 ± 1.8 µM	> 30 µM	> 30 µM											
CC(=O)O[C@H]1CC[C@]2(C)[C@H]3CC=C4[C@@H]5CC(C)(C)CC[C@]5(C(=O)O)CC[C@@]4(C)[C@]3(C)CC[C@H]2[C@]1(C)C=O [Compound 4, (3β,4α) 3-(Acetyloxy)-23-oxoolean-12-en-28-oic Acid]		24.6 ± 4.7 µM	> 30 µM	> 30 µM		> 30 µM											
CC(=O)OC[C@@]1(C)[C@@H]2CC[C@]3(C)[C@H](CC=C4[C@@H]5CC(C)(C)CC[C@]5(C(=O)O)CC[C@]43C)[C@@]2(C)CC[C@@H]1OC(C)=O [Compound 5, (3β,4α) 3,23-Bis(acetyloxy)olean-12-en-28-oic Acid]	11.9 ± 0.5 µM	9.8 ± 1 µM	19 ± 0.6 µM	17.1 ± 1.1 µM	9.6 ± 0.6 µM	12.4 ± 0.7 µM	185 to 189 °C										
CC(=O)OC[C@@]1(C)[C@@H]2[C@H](O)C[C@]3(C)[C@H](CC=C4[C@@H]5[C@@H](C)[C@H](C)CC[C@]5(C(=O)NCc5ccccc5)CC[C@]43C)[C@@]2(C)C[C@@H](OC(C)=O)[C@@H]1OC(C)=O [Compound 15, (2α,3β,4α,6β) 2,3,23-Tris(acetyloxy)-N-(benzyl)-6-hydroxyurs-12-en-28-amide]	1.4 ± 0.1 µM	2.7 ± 0.4 µM	2.3 ± 0.2 µM	1 ± 0.1 µM	17.9 ± 2.1 µM		90 to 95 °C	≥ 0.015 µM									
CC(=O)OC[C@@]1(C)[C@@H]2[C@H](O)C[C@]3(C)[C@H](CC=C4[C@@H]5[C@@H](C)[C@H](C)CC[C@]5(C(=O)Nc5ccccc5)CC[C@]43C)[C@@]2(C)C[C@@H](OC(C)=O)[C@@H]1OC(C)=O [Compound 16, (2α,3β,4α,6β) 2,3,23-Tris(acetyloxy)-N-(phenyl)-6-hydroxyurs-12-en-28-amide]	2.2 ± 0.1 µM	4.5 ± 0.9 µM	3.7 ± 0.4 µM	1.3 ± 0.1 µM	21.1 ± 1.1 µM		135 to 139 °C	≥ 0.015 µM									
CCN(CC)c1ccc2c(-c3ccccc3C(=O)N3CCN(C(=O)[C@]45CC[C@@H](C)[C@H](C)[C@H]4C4=CC[C@@H]6[C@@]7(C)C[C@@H](OC(C)=O)[C@H](OC(C)=O)[C@@](C)(COC(C)=O)[C@@H]7[C@H](O)C[C@@]6(C)[C@]4(C)CC5)CC3)c3ccc(=[N+](CC)CC)cc-3oc2c1 [Compound 23, N-{6-Diethylamino-9-[2-({4[ (2α,3β,4α,6β)-2,3,23-tris(acetyloxy)-6-hydroxy-28-oxours-12-en-28-yl)-1-piperazinyl]carbonyl]phenyl]-3H-xanthen-3-ylidene)-N-ethylethanaminium Chloride]	0.015 ± 0.001 µM	0.054 ± 0.01 µM	0.108 ± 0.02 µM	0.055 ± 0.01 µM	0.277 ± 0.03 µM			≥ 0.015 µM									
CCN(CC)c1ccc2c(-c3ccccc3C(=O)N3CCCN(C(=O)[C@]45CC[C@@H](C)[C@H](C)[C@H]4C4=CC[C@@H]6[C@@]7(C)C[C@@H](OC(C)=O)[C@H](OC(C)=O)[C@@](C)(COC(C)=O)[C@@H]7[C@H](O)C[C@@]6(C)[C@]4(C)CC5)CC3)c3ccc(=[N+](CC)CC)cc-3oc2c1 [Compound 24, N-{6-Diethylamino-9-[2-({4[ (2α,3β,4α,6β)-2,3,23-tris(acetyloxy)-6-hydroxy-28-oxours-12-en-28-yl)-1,4-diazepan-1-yl}carbonyl]phenyl]-3H-xanthen-3-ylidene)-N-ethylethanaminium Chloride]	0.0029 ± 0.0005 µM	0.0162 ± 0.0045 µM	0.0127 ± 0.0038 µM	0.0095 ± 0.0015 µM	0.101 ± 0.0231 µM	0.0526 ± 0.0151 µM			more than 10,000 times	acts as a mitocan	~10,000 times						
(3β,4α) 3-Hydroxy-23-oxoolean-12-en-28-oic Acid [Compound 1]												13 ± 1.6 µM	18.5 ± 2.2 µM	> 30 µM	17.3 ± 1.6 µM	16.7 ± 2.8 µM	25 ± 4.1 µM
